Test results: ChEMBL document CHEMBL5518172, “Discovery of hydroxamate as a promising scaffold dually inhibiting metallo- and serine-β-lactamases” (Eur J Med Chem, 2024)
Calls of active or inactive are those of the source. No cut-off for these calls is given here.

How the values were obtained:
Bacteria [1] = assay: Inhibition of recombinant metallo-beta-lactamase ImiS (unknown origin) expressed in Escherichia coli BL21 (DE3) cells using meropenem as substrate at 20 uM by spectrometric analysis relative to control
[2] = biological target: T1, Metallo-beta-lactamase type 2 (Bacteria, UniProt C7C422); assay: Inhibition of recombinant NDM-1 (unknown origin) expressed in Escherichia coli BL21 (DE3) cells using meropenem as substrate by spectrometric analysis
T1 sequence (C7C422 whole entry): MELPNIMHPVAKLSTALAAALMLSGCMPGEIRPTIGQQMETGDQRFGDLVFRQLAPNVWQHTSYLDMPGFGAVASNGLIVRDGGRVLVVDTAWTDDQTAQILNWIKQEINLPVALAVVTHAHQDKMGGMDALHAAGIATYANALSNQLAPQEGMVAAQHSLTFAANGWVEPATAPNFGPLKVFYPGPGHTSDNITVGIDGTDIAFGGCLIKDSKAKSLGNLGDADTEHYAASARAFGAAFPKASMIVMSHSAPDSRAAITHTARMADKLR

[3] = Inhibition of recombinant serine beta lactamase KPC-2 (unknown origin) expressed in Escherichia coli BL21 (DE3) cells using meropenem as substrate by spectrometric analysis; parameters: species or system Bacteria
[4] = biological target: T1, Metallo-beta-lactamase type 2; assay: Non-competitive inhibition of recombinant NDM-1 (unknown origin) expressed in Escherichia coli BL21 (DE3) cells using meropenem as substrate assessed as inhibition constant by Lineweaver-Burk plot analysis
[5] = Non-competitive inhibition of recombinant serine beta lactamase KPC-2 (unknown origin) expressed in Escherichia coli BL21 (DE3) cells using meropenem as substrate assessed as inhibition constant by Lineweaver-Burk plot analysis; parameters: species or system Bacteria
Bacteria [6] = assay: Inhibition of recombinant serine beta lactamase KPC-2 (unknown origin) expressed in Escherichia coli BL21 (DE3) cells assessed as reduction in residual activity incubated for 360 min; settings: dose 0.25-5 µM
Bacteria [7] = assay: Inhibition of recombinant metallo-beta-lactamase IMP-1 (unknown origin) expressed in Escherichia coli BL21 (DE3) cells using cefazolin as substrate assessed as reduction in residual activity; settings: dose 0.075-20 µM
Bacteria [8] = assay: Inhibition of recombinant IMP-1 (unknown origin) expressed in Escherichia coli BL21 (DE3) cells assessed as reduction in residual activity at 0.25 to 5 uM; settings: dose 0.25-5 µM, time 20.0 hrs, TDE = time-dependent effect
Bacteria [9] = assay: Inhibition of recombinant serine beta lactamase OXA-48 (unknown origin) expressed in Escherichia coli BL21 (DE3) cells assessed as maximal inhibition at 5 uM measured after 0.5 hrs
Bacteria [10] = assay: Inhibition of recombinant serine beta lactamase KPC-2 (unknown origin) expressed in Escherichia coli BL21 (DE3) cells using cefazolin as substrate assessed as reduction in residual activity; settings: dose 0.075-20 µM
[11] = biological target: Metallo-beta-lactamase type 2 (Bacteria) (UniProt C7C422); assay: Inhibition of recombinant NDM-1 (unknown origin) expressed in Escherichia coli BL21 (DE3) cells using meropenem as substrate assessed as residual activity at 20 uM relative to control
Metallo-beta-lactamase type 2 (Bacteria), sequence (C7C422 whole entry): as above

Bacteria [12] = assay: Inhibition of recombinant metallo-beta-lactamase IMP-1 (unknown origin) expressed in Escherichia coli BL21 (DE3) cells using cefazolin as substrate assessed as residual activity at 20 uM relative to control
[13] = biological target: Metallo-beta-lactamase type 2 (Bacteria) (UniProt C7C422); assay: Destabilization of recombinant NDM-1 (unknown origin) expressed in Escherichia coli BL21 (DE3) cells assessed as thermal stabilization by measuring melting temperature at 50 uM incubated under 25 to 80 degreeC by SYPRO orange dye based thermal shift assay (reference value: 52.6 degreeC)
Bacteria [14] = assay: Destabilization of recombinant serine beta lactamase KPC-2 (unknown origin) expressed in Escherichia coli BL21 (DE3) cells assessed as thermal stabilization by measuring melting temperature at 50 uM incubated under 25 to 80 degreeC by SYPRO orange dye based thermal shift assay (reference value: 55.4 degreeC)
Escherichia coli [15] = assay: Synergistic antibacterial activity against Escherichia coli BL21 (DE3) harboring NDM-1 assessed as meropenem MIC at 64 microg/ml measured after 16 hrs by CLSI protocol based broth microdilution method (reference value: 256 microg/ml); type: functional; settings: dose 64 µg/ml
Escherichia coli [16] = assay: Synergistic antibacterial activity against Escherichia coli assessed as meropenem MIC at 64 microg/ml measured after 16 hrs by CLSI protocol based broth microdilution method (reference value: 64 microg/ml); type: functional; settings: dose 64 µg/ml
Escherichia coli [17] = assay: Synergistic antibacterial activity against Escherichia coli clinical isolate 06 assessed as meropenem MIC at 64 microg/ml measured after 16 hrs by CLSI protocol based broth microdilution method (reference value: 128 microg/ml); type: functional; settings: dose 64 µg/ml
Escherichia coli [18] = assay: Synergistic antibacterial activity against Escherichia coli clinical isolate 08 assessed as meropenem MIC at 64 microg/ml measured after 16 hrs by CLSI protocol based broth microdilution method (reference value: 128 microg/ml); type: functional; settings: dose 64 µg/ml
Klebsiella pneumoniae = assay: Synergistic antibacterial activity against KPC and NDM-1 producing Klebsiella pneumoniae assessed as meropenem MIC at 64 microg/ml incubated for 16 hrs by CLSI protocol based broth microdilution method (reference value: 256 microg/ml); type: functional; settings: dose 64 µg/ml
Escherichia coli [19] = assay: Synergistic antibacterial activity against Escherichia coli BL21 (DE3) harboring metallo-beta lactamase IMP-1 assessed as fold decrease in meropenem MIC at 64 microg/ml measured after 16 hrs by CLSI protocol based broth microdilution method; type: functional; settings: dose 64 µg/ml
Escherichia coli [20] = assay: Synergistic antibacterial activity against Escherichia coli clinical isolate 04 assessed as fold decrease in meropenem MIC at 64 microg/ml measured after 16 hrs by CLSI protocol based broth microdilution method; type: functional; settings: dose 64 µg/ml
Escherichia coli [21] = assay: Synergistic antibacterial activity against Escherichia coli clinical isolate 06 assessed as fold decrease in meropenem MIC at 64 microg/ml measured after 16 hrs by CLSI protocol based broth microdilution method; type: functional; settings: dose 64 µg/ml
Escherichia coli [22] = assay: Synergistic antibacterial activity against Escherichia coli clinical isolate 24 assessed as fold decrease in meropenem MIC at 64 microg/ml measured after 16 hrs by CLSI protocol based broth microdilution method; type: functional; settings: dose 64 µg/ml
Escherichia coli [23] = assay: Synergistic antibacterial activity against Escherichia coli BL21 (DE3) harboring serine beta lactamase OXA-48 assessed as decrease in bacterial colony at 128 microg/ml incubated for 12 hrs in presence of meropenem by imaging analysis; type: functional, organism-based; settings: dose 128.0 µg/ml
Escherichia coli [24] = assay: Antibacterial activity against Escherichia coli BL21 (DE3) harboring serine beta lactamase OXA-48 assessed as inhibition of bacterial growth upto 512 microg/ml by microdilution checkerboard assay; type: functional, organism-based; settings: dose <= 512.0 µg/ml
Escherichia coli [25] = assay: Synergistic antibacterial activity against Escherichia coli BL21 (DE3) harboring metallo-beta-lactamase IMP-1 assessed as reduction in meropenem MIC upto 256 microg/ml in presence of meropenem by microdilution checkerboard assay; type: functional, organism-based; settings: dose <= 256.0 µg/ml
Escherichia coli [26] = assay: Synergistic antibacterial activity against Escherichia coli BL21 (DE3) harboring serine beta lactamase OXA-48 assessed as reduction in meropenem MIC upto 256 microg/ml in presence of meropenem by microdilution checkerboard assay; type: functional, organism-based; settings: dose <= 256.0 µg/ml
Escherichia coli [27] = assay: Synergistic antibacterial activity against Escherichia coli harboring NDM-1 infected in Kunming mouse model assessed as reduction in bacterial load in liver at 20 mg/kg, ip co-administered with 10 mg/kg of meropenem; type: functional, organism-based
Escherichia coli [28] = assay: Synergistic antibacterial activity against Escherichia coli harboring serine beta-lactamase OXA-48 infected in Kunming mouse model assessed as reduction in bacterial load in spleen at 20 mg/kg, ip co-administered with 1 mg/kg of meropenem; type: functional, organism-based
Escherichia coli [29] = assay: Antibacterial activity against Escherichia coli harboring NDM-1 infected in Kunming mouse model assessed as reduction in bacterial load in spleen at 20 mg/kg, ip; type: functional, organism-based

Question: Which inhibition (Bacteria [1]) does the source give for `O=C(CCCc1ccccc1)NOC(=O)OCc1ccccc1` here?
Answer: < 42%

Question: What about the IC50 [2] of the same molecule?
Answer: 640 nM

Question: And the IC50 [3]?
Answer: 570 nM

Question: And the Ki [4]?
Answer: 2500 nM

Question: What about the Ki [5] of the same molecule?
Answer: 550 nM

Question: What about the inhibition (Bacteria [6]) of the same molecule?
Answer: Dose-Dependent Effect

Question: What about the inhibition (Bacteria [7]) of the same molecule?
Answer: Dose-Dependent Effect

Question: What about the inhibition (Bacteria [8]) of the same molecule?
Answer: Tde

Question: What about the inhibition (Bacteria [9]) of the same molecule?
Answer: Active

Question: What about the inhibition (Bacteria [10]) of the same molecule?
Answer: Dose-Dependent Effect

Question: And the Activity [11]?
Answer: < 10%

Question: What about the Activity (Bacteria [12]) of the same molecule?
Answer: < 10%

Question: What about the Tm [13] of the same molecule?
Answer: 49.8 °C

Question: What about the Tm (Bacteria [14]) of the same molecule?
Answer: 51.4 °C

Question: And the MIC (Escherichia coli [15])?
Answer: 32 µg/mL

Question: What about the MIC (Escherichia coli [16]) of the same molecule?
Answer: 64 µg/mL

Question: And the MIC (Escherichia coli [17])?
Answer: 64 µg/mL

Question: And the MIC (Escherichia coli [18])?
Answer: 64 µg/mL

Question: And the MIC (Klebsiella pneumoniae)?
Answer: 256 µg/mL

Question: What about the “fold change (FC)” value (Escherichia coli [19]) of the same molecule?
Answer: 4

Question: And the “fold change (FC)” value (Escherichia coli [20])?
Answer: 2

Question: And the “fold change (FC)” value (Escherichia coli [21])?
Answer: 2

Question: What about the “fold change (FC)” value (Escherichia coli [22]) of the same molecule?
Answer: 2

Question: What about the Activity (Escherichia coli [23]) of the same molecule?
Answer: Active

Question: What about the Activity (Escherichia coli [24]) of the same molecule?
Answer: inactive

Question: And the Activity (Escherichia coli [25])?
Answer: Active

Question: What about the Activity (Escherichia coli [26]) of the same molecule?
Answer: Active

Question: What about the Activity (Escherichia coli [27]) of the same molecule?
Answer: Active

Question: What about the Activity (Escherichia coli [28]) of the same molecule?
Answer: Active

Question: What about the Activity (Escherichia coli [29]) of the same molecule?
Answer: inactive
